Test results published in ChEMBL document CHEMBL1151338, “Alkaloids of Thalictrum XXX. Eleven Minor Alkaloids From Thalictrum rugosum” (1980).
Activity calls are given as the source filed them. The calls are words filed in the database; no cut-off is given here.

Tests used:
Staphylococcus aureus [1] = assay: Antimicrobial activity against Staphylococcus aureus ATCC 13709a at 1000 ug/ml; format: functional, organism-based
Escherichia coli [2] = assay: Antimicrobial activity against Escherichia coli ATCC 9637 at 1000 ug/ml; format: functional, organism-based
Candida albicans [3] = assay: Antimicrobial activity against Candida albicans ATCC 10231 at 1000 ug/ml; format: functional, organism-based
[4] = system: Mycolicibacterium smegmatis; assay: Antimicrobial activity against Mycobacterium smegmatis ATCC 607 at 1000 ug/ml; format: functional, organism-based
Klebsiella pneumoniae [5] = assay: Antimicrobial activity against Klebsiella pneumoniae ATCC 10031 at 1000 ug/ml; format: functional, organism-based
[6] = system: Salmonella enterica subsp. enterica serovar Gallinarum; assay: Antimicrobial activity against Salmonella gallinarum ATCC 9184 at 1000 ug/ml; format: functional, organism-based
Staphylococcus aureus [7] = assay: Antimicrobial activity against Staphylococcus aureus ATCC 13709a; format: functional
[8] = system: Mycolicibacterium smegmatis; assay: Antimicrobial activity against Mycobacterium smegmatis ATCC 607; format: functional
Klebsiella pneumoniae [9] = assay: Antimicrobial activity against Klebsiella pneumoniae ATCC 10031; format: functional
Escherichia coli [10] = assay: Antimicrobial activity against Escherichia coli ATCC 9637; format: functional
[11] = system: Salmonella enterica subsp. enterica serovar Gallinarum; assay: Antimicrobial activity against Salmonella gallinarum ATCC 9184; format: functional
Candida albicans [12] = assay: Antimicrobial activity against Candida albicans ATCC 10231; format: functional

Row | Compound | Activity (Staphylococcus aureus [1]) | Activity (Escherichia coli [2]) | Activity (Candida albicans [3]) | Activity [4] | Activity (Klebsiella pneumoniae [5]) | Activity [6] | Activity (Staphylococcus aureus [7]) | Activity [8] | Activity (Klebsiella pneumoniae [9]) | Activity (Escherichia coli [10]) | Activity [11] | Activity (Candida albicans [12])
1 | O=C1NCCc2cc3c(cc21)OCO3 | inactive | inactive | inactive | inactive | inactive | inactive | – | – | – | – | – | –
2 | COc1cc2c(cc1O)[C@H](Cc1ccc(OC)c(Oc3ccc(C[C@H]4c5cc(OC)c(OC)cc5CCN4C)cc3)c1)N(C)CC2 [NEOTHALIBRINE] | – | inactive | inactive | – | inactive | inactive | 1000 µg/mL | 1000 µg/mL | – | – | – | –
3 | CN[C@@H]1[C@H](O[C@H]2[C@H](O[C@H]3[C@H](O)[C@@H](O)[C@H](N=C(N)N)[C@@H](O)[C@@H]3N=C(N)N)O[C@@H](C)[C@]2(O)C=O)O[C@@H](CO)[C@H](O)[C@H]1O [STREPTOMYCIN] | – | – | inactive | – | – | – | 3.1 µg/mL | 0.78 µg/mL | 1.56 µg/mL | 12.5 µg/mL | 25 µg/mL | –
4 | COc1cc(CCN(C)C)c2ccc3cc4c(cc3c2c1OC)OCO4 [THALICTHUBERINEC] | – | inactive | – | – | – | – | 100 µg/mL | 25 µg/mL | 1000 µg/mL | – | 1000 µg/mL | 50 µg/mL
5 | COc1cc2c3c(c1O)Oc1c4c(cc(OC)c1OC)[C@H](Cc1ccc(cc1)Oc1cc(ccc1O)C[C@@H]3N(C)CC2)N(C)CC4 [THALIGOSIDINE] | – | inactive | – | – | inactive | inactive | 1000 µg/mL | 100 µg/mL | – | – | – | 1000 µg/mL
6 | CCOc1c2c3c(c(OC)c1OC)Oc1cc4c(cc1OC)CCN(C)[C@H]4Cc1ccc(OC)c(c1)Oc1ccc(cc1)C[C@@H]3N(C)CC2 [THALIGOSINE ETHYL ETHER] | – | inactive | – | – | – | inactive | 100 µg/mL | 100 µg/mL | 1000 µg/mL | – | – | 100 µg/mL
7 | COc1ccc2cc1Oc1ccc(cc1)C[C@H]1c3c(c(O)c(OC)c(OC)c3Oc3cc4c(cc3OC)CCN(C)[C@H]4C2)CCN1C [THALIGOSINE] | – | inactive | – | – | – | inactive | 100 µg/mL | 100 µg/mL | – | – | – | 1000 µg/mL
8 | COc1cc2c3cc1Oc1c(OC)c(OC)c(OC)c4c1[C@H](Cc1ccc(cc1)Oc1cc(ccc1O)C[C@@H]3N(C)CC2)N(C)CC4 [THALIGOSININE] | – | inactive | inactive | – | inactive | inactive | 1000 µg/mL | 1000 µg/mL | 1000 µg/mL | – | – | –
9 | COc1ccc(C[C@H]2c3cc(OC)c(OC)c(O)c3CCN2C)cc1Oc1ccc(C[C@H]2c3cc(OC)c(OC)c(O)c3CCN2C)cc1 [THALIRUGIDINE] | – | inactive | inactive | – | inactive | inactive | 1000 µg/mL | 1000 µg/mL | – | – | – | –
10 | COc1cc2c(cc1O)[C@H](Cc1ccc(OC)c(Oc3ccc(C[C@H]4c5cc(OC)c(OC)c(O)c5CCN4C)cc3)c1)N(C)CC2 [THALIRUGINE] | – | inactive | inactive | – | inactive | inactive | 1000 µg/mL | 1000 µg/mL | – | – | – | –
